Test results taken from patent US20220017501A1, “MICROBIOCIDAL THIAZOLE DERIVATIVES” (SYNGENTA PARTICIPATIONS AG, priority 2018, published 2022).

Key:
Pyrenophora teres = Pyrenophora teres / barley / leaf disc preventative (net blotch); type: in vivo; details: foliar, barley leaf segments, compared to untreated control
Method: Example B14: Pyrenophora Teres/Barley/Leaf Disc Preventative (Net Blotch) Barley leaf segments cv. Hasso are placed on agar in a multiwell plate (24-well format) and sprayed with the formulated test compound diluted in water. The leaf […] inoculated with a spore suspension of the fungus 2 days after application. The inoculated leaf segments are incubated at 20° C. and 65% rh under a light regime of 12 h light/12 h darkness in a climate cabinet and the activity of a compound is assessed as disease control compared to untreated when an appropriate level of disease damage appears in untreated check leaf segments (5-7 days after application). […] […].23.

[1] = tested on: Mycosphaerella graminicola (Septoria tritici); assay: Mycosphaerella graminicola (Septoria tritici) / liquid culture (Septoria blotch); type: cell-based; details: Zymoseptoria tritici, growth inhibition photometrically 4-5 days after application, read-out: control of Mycosphaerella graminicola
Method: (§1) Example B16: Mycosphaerella Graminicola (Septoria Tritici)/Liquid Culture (Septoria Blotch) Conidia of the fungus from cryogenic storage are directly mixed into nutrient broth (PDB potato dextrose broth). After placing a (DMSO) solution of test compound into a microtiter plate (96-well format), the nutrient broth containing the fungal spores is added. The test plates are incubated at 24° C. and the inhibition of growth is determined photometrically 4-5 days after application. […] […].23.

[2] = tested on: Mycosphaerella arachidis (Cercospora arachidicola); assay: Mycosphaerella arachidis (Cercospora arachidicola) / liquid culture (early leaf spot); type: cell-based; details: growth inhibition photometrically 4-5 days after application, read-out: control of Mycosphaerella arachidis
Method: as §1, with “B8:” for “B16:”, “Arachidis (Cercospora Arachidicola)/Liquid” for “Graminicola (Septoria Tritici)/Liquid”, “(Early Leaf Spot)” for “(Septoria Blotch)”

[3] = tested on: Monographella nivalis (Microdochium nivale); assay: Monographella nivalis (Microdochium nivale) / liquid culture (foot rot cereals); type: cell-based; details: growth inhibition photometrically 4-5 days after application, read-out: control of Monographella nivalis
Method: as §1, with “B7: Monographella Nivalis (Microdochium Nivale)/Liquid” for “B16: Mycosphaerella Graminicola (Septoria Tritici)/Liquid”, “(Foot Rot Cereals)” for “(Septoria Blotch)”

[4] = tested on: Glomerella lagenarium (Colletotrichum lagenarium); assay: Glomerella lagenarium (Colletotrichum lagenarium) / liquid culture (anthracnose); type: cell-based; details: Colletotrichum orbiculare, growth inhibition photometrically 3-4 days after application, read-out: control of Glomerella lagenarium
Method: Example B3: Glomerella Lagenarium (Colletotrichum Lagenarium)/Liquid Culture (Anthracnose) Conidia of the fungus from cryogenic storage are directly mixed into nutrient broth (PDB potato dextrose broth). After placing a (DMSO) solution of test compound into a microtiter plate (96-well format), the nutrient broth containing the fungal spores is added. The test plates are incubated at 24° C. and the inhibition of growth is measured photometrically 3-4 days after application.

[5] = tested on: Magnaporthe grisea (Pyricularia oryzae); assay: whole plant or invertebrate; type: in vivo; details: foliar, read-out: control of Magnaporthe grisea
[6] = tested on: Blumeria graminis f. sp. tritici (Erysiphe graminis f. sp. tritici); assay: Blumeria graminis f. sp. tritici / wheat / leaf disc preventative (powdery mildew on wheat); type: in vivo; details: foliar, wheat leaf segments, compared to untreated control
Method: Example B4: Blumeria Graminis f. sp. Tritici (Erysiphe Graminis f. sp. Tritici)/Wheat/Leaf Disc Preventative (Powdery Mildew on Wheat) Wheat leaf segments cv. Kanzler are placed on agar in a multiwell plate (24-well format) and sprayed with the formulated test compound diluted in water. The leaf disks are inoculated by shaking powdery mildew infected plants above the test plates 1 day after application. The inoculated leaf disks are incubated at 20° C. and 60% rh under a light regime of 24 h darkness followed by 12 h light/12 h darkness in a climate chamber and the activity of a compound is assessed as percent disease control compared to untreated when an appropriate level of disease damage appears on untreated check leaf segments (6-8 days after application). […].23.

Cc1sc(N(C#N)c2cc(F)nc(F)c2)nc1C(=O)NC1CCC12Cc1ccccc1C2 (stereo not shown) [I.d.23, 2-[cyano-(2,6-difluoro-4-pyridyl)amino]-5-methyl-N-spiro[cyclobutane-2,2′-indane]-1-yl-thiazole-4-carboxamide]
≥ 80%: pest or weed control at 200 ppm (Pyrenophora teres) | inhibition of growth at 20 ppm [1] | inhibition of growth at 20 ppm [2] | inhibition of growth at 20 ppm [3] | inhibition of growth at 20 ppm [4] | pest or weed control at 200 ppm [5] | pest or weed control at 200 ppm [6]

Cc1sc(N(C#N)c2cc(F)cc(F)c2)nc1C(=O)NC1CCC1(C)C (stereo not shown) [I.b.08, 2-(N-cyano-3,5-difluoro-anilino)-N-(2,2-dimethylcyclobutyl)-5-methyl-thiazole-4-carboxamide]
≥ 80%: inhibition of growth at 20 ppm [1] | inhibition of growth at 20 ppm [2] | inhibition of growth at 20 ppm [3] | inhibition of growth at 20 ppm [4] | pest or weed control at 200 ppm [5] | pest or weed control at 200 ppm [6]

CCCCCNC(=O)c1nc(N(C#N)c2cc(F)nc(F)c2)sc1C [I.l.23, 2-[cyano-(2,6-difluoro-4-pyridyl)amino]-5-methyl-N-pentyl-thiazole-4-carboxamide]
≥ 80%: inhibition of growth at 20 ppm [1] | inhibition of growth at 20 ppm [2] | inhibition of growth at 20 ppm [3] | pest or weed control at 200 ppm [5] | pest or weed control at 200 ppm [6]

Cc1sc(N(C#N)c2cc(F)nc(F)c2)nc1C(=O)NC1CCC12CCC2 (stereo not shown) [I.e.23, 2-[cyano-(2,6-difluoro-4-pyridyl)amino]-5-methyl-N-spiro[3.3]heptan-3-yl-thiazole-4-carboxamide]
≥ 80%: inhibition of growth at 20 ppm [1] | inhibition of growth at 20 ppm [2] | inhibition of growth at 20 ppm [3] | inhibition of growth at 20 ppm [4] | pest or weed control at 200 ppm [5] | pest or weed control at 200 ppm [6]

Cc1sc(N(C#N)c2cc(F)nc(F)c2)nc1C(=O)NC1CCC1 [I.a.23, 2-[cyano-(2,6-difluoro-4-pyridyl)amino]-N-cyclobutyl-5-methyl-thiazole-4-carboxamide]
≥ 80%: pest or weed control at 200 ppm (Pyrenophora teres) | inhibition of growth at 20 ppm [1] | inhibition of growth at 20 ppm [3] | pest or weed control at 200 ppm [5] | pest or weed control at 200 ppm [6]

Cc1sc(N(C#N)c2cc(F)nc(F)c2)nc1C(=O)NCc1ccccc1 [I.o.23, N-benzyl-2-[cyano-(2,6-difluoro-4-pyridyl)amino]-5-methyl-thiazole-4-carboxamide]
≥ 80%: inhibition of growth at 20 ppm [1] | inhibition of growth at 20 ppm [2] | inhibition of growth at 20 ppm [3] | inhibition of growth at 20 ppm [4] | pest or weed control at 200 ppm [5] | pest or weed control at 200 ppm [6]

Cc1sc(N(C#N)c2cc(F)nc(F)c2)nc1C(=O)NCC1(CC2CC2)CC1 [I.f.23, 2-[cyano-(2,6-difluoro-4-pyridyl)amino]-N-[[1-(cyclopropylmethyl)cyclopropyl]methyl]-5-methyl-thiazole-4-carboxamide]
≥ 80%: inhibition of growth at 20 ppm [1] | inhibition of growth at 20 ppm [2] | inhibition of growth at 20 ppm [3] | inhibition of growth at 20 ppm [4] | pest or weed control at 200 ppm [5] | pest or weed control at 200 ppm [6]

Cc1sc(N(C#N)c2cc(F)nc(F)c2)nc1C(=O)NC(C)c1ccccc1 (stereo not shown) [I.j.23, 2-[cyano-(2,6-difluoro-4-pyridyl)amino]-5-methyl-N-(1-phenylethyl)thiazole-4-carboxamide]
≥ 80%: inhibition of growth at 20 ppm [1] | inhibition of growth at 20 ppm [3] | inhibition of growth at 20 ppm [4] | pest or weed control at 200 ppm [5] | pest or weed control at 200 ppm [6]

CCCCCCNC(=O)c1nc(N(C#N)c2cc(F)nc(F)c2)sc1C [I.h.23, 2-[cyano-(2,6-difluoro-4-pyridyl)amino]-N-hexyl-5-methyl-thiazole-4-carboxamide]
≥ 80%: inhibition of growth at 20 ppm [1] | inhibition of growth at 20 ppm [2] | inhibition of growth at 20 ppm [3] | inhibition of growth at 20 ppm [4] | pest or weed control at 200 ppm [5] | pest or weed control at 200 ppm [6]

CC1(C)CCC1NC(=O)c1nc(N(C#N)c2cc(F)nc(F)c2)sc1NC=O (stereo not shown) [I.b.25, 2-[cyano-(2,6-difluoro-4-pyridyl)amino]-N-(2,2-dimethylcyclobutyl)-5-formamido-thiazole-4-carboxamide]
≥ 80%: inhibition of growth at 20 ppm [1] | inhibition of growth at 20 ppm [3] | inhibition of growth at 20 ppm [4]

Cc1sc(N(C#N)c2cc(F)nc(F)c2)nc1C(=O)NC1CCC12CCCC2 (stereo not shown) [I.c.23, 2-[cyano-(2,6-difluoro-4-pyridyl)amino]-5-methyl-N-spiro[3.4]octan-3-yl-thiazole-4-carboxamide]
≥ 80%: pest or weed control at 200 ppm (Pyrenophora teres) | inhibition of growth at 20 ppm [1] | inhibition of growth at 20 ppm [2] | inhibition of growth at 20 ppm [3] | inhibition of growth at 20 ppm [4] | pest or weed control at 200 ppm [5] | pest or weed control at 200 ppm [6]

Cc1sc(N(C#N)c2cc(F)nc(F)c2)nc1C(=O)NC1(C)CCCC1 [I.g.23, 2-[cyano-(2,6-difluoro-4-pyridyl)amino]-5-methyl-N-(1-methylcyclopentyl)thiazole-4-carboxamide]
≥ 80%: pest or weed control at 200 ppm (Pyrenophora teres) | inhibition of growth at 20 ppm [1] | inhibition of growth at 20 ppm [2] | inhibition of growth at 20 ppm [3] | inhibition of growth at 20 ppm [4] | pest or weed control at 200 ppm [5] | pest or weed control at 200 ppm [6]

Cc1sc(N(C#N)c2cc(F)cc(F)c2)nc1C(=O)NC1(C)CCCC1 [I.g.08, 2-(N-cyano-3,5-difluoro-anilino)-5-methyl-N-(1-methylcyclopentyl)thiazole-4-carboxamide]
≥ 80%: inhibition of growth at 20 ppm [2] | inhibition of growth at 20 ppm [3] | inhibition of growth at 20 ppm [4] | pest or weed control at 200 ppm [5] | pest or weed control at 200 ppm [6]

Cc1sc(N(C#N)c2cc(F)nc(F)c2)nc1C(=O)NCC(C)C [I.i.23, 2-[cyano-(2,6-difluoro-4-pyridyl)amino]-N-isobutyl-5-methyl-thiazole-4-carboxamide]
≥ 80%: pest or weed control at 200 ppm (Pyrenophora teres) | inhibition of growth at 20 ppm [1] | inhibition of growth at 20 ppm [3] | inhibition of growth at 20 ppm [4] | pest or weed control at 200 ppm [5] | pest or weed control at 200 ppm [6]

CCCCNC(=O)c1nc(N(C#N)c2cc(F)nc(F)c2)sc1C [I.p.23, N-butyl-2-[cyano-(2,6-difluoro-4-pyridyl)amino]-5-methyl-thiazole-4-carboxamide]
≥ 80%: pest or weed control at 200 ppm (Pyrenophora teres) | inhibition of growth at 20 ppm [1] | inhibition of growth at 20 ppm [2] | inhibition of growth at 20 ppm [3] | inhibition of growth at 20 ppm [4] | pest or weed control at 200 ppm [5] | pest or weed control at 200 ppm [6]

Cc1sc(N(C#N)c2cc(F)nc(F)c2)nc1C(=O)NCC(C)(C)C [I.k.23, 2-[cyano-(2,6-difluoro-4-pyridyl)amino]-N-(2,2-dimethylpropyl)-5-methyl-thiazole-4-carboxamide]
≥ 80%: pest or weed control at 200 ppm (Pyrenophora teres) | inhibition of growth at 20 ppm [1] | inhibition of growth at 20 ppm [2] | inhibition of growth at 20 ppm [3] | inhibition of growth at 20 ppm [4] | pest or weed control at 200 ppm [5] | pest or weed control at 200 ppm [6]
